Test results taken from patent US20240239786A1, “COMPOSITIONS AND METHODS FOR THE TREATMENT AND PREVENTION OF CANCER” (Yale University, priority 2021, published 2024).

System: HR repair
Experiment: HR reporter assay in SKOV3-DR-GFP cells
Format: cell-based
Conditions: Homo sapiens, SK-OV-3, I-SceI-induced DSB, 48 hr, read-out: IC50 for inhibiting HR repair
From the text: Cells were transfected with the ISceI-expressing plasmid and then treated various concentrations of DB4 for 48 hr. Cells were harvested, stained with 7-AAD, and analyzed by flow cytometry for GFP-positive cells indicative of HR repair activity. […] Cells were transfected with the ISceI-expressing plasmid and treated with various concentrations of DB4. Cells were harvested, stained with 7-AAD, and stained, and analyzed by flow cytometry for GFP-positive cells indicative of NHEJ activity. Data are means±SD (N=3). *, p<0.05; **, p<0.01, compared with the 0 μM control of ISceI-transected cells. […] Cells were also scored for nuclei containing equal or more than 10 distinct Rad51 foci to determine the percentage of cells positive for Rad51 foci. […] Protein was assessed by western blot analysis for the levels of γH2AX, p-H1, cyclin A2, p-CDK1/2, and HSC70. […] The band density of γH2AX indicative of DSBs was quantified by densitometry. […]
The ability of DB4 to inhibit endonuclease-induced DSB repair of reporter genes in SKOV3 cells was evaluated. […]
SKOV3-DR-GFP cells were established as described previously (Lin Z P et al., 2014, Molecular Cancer Res, 12:381-393). […] Cells were then trypsinized, stained with 7-AAD, and analyzed for the percentage of GFP-positive and […] cells by flow cytometry using an LSR II flow cytometer (BD Biosciences) and FlowJo software (Tree Star; Ashland, OR). […]

For `C=CCn1c(SCc2cccc(Cl)c2)nnc1C1CCN(Cc2nc3ccccc3s2)CC1` [DB4, 2-[(4-{4-allyl-5-[(3-chlorobenzyl)thio]-4H-1,2,4-triazol-3-yl}-1-piperidinyl)methyl]-1,3-benzothiazole], the IC50 was 5.4 µM.
